The record followed here is patent publication US20250319206A1, “CRISPR/CAS GENE EDITING OF NEH4 AND/OR NEH5 DOMAINS IN NRF2” (Christina Care Gene Editing Institute, Inc., priority 2024, published 2025).

Data set [1] deals with NRF2 gene. The data set is described as follows: Exon skipping analysis of NRF2 cDNA in FaDu and KYSE-410 cells. In kind it is cell-based, Human. The following applies: 72 hours post-transfection, cDNA PCR 5′UTR to exon 5. As for the experimental part:
Total RNA was isolated from edited cells using TRIzol reagent and PureLink RNA Mini Kit (Thermo Fisher Scientific, Waltham, MA). Reverse transcription was conducted using the Applied Biosystems High-Capacity RNA-to-cDNA kit (Thermo Fisher Scientific, Waltham, MA). The cDNA was used as the template for PCR amplification with either Phusion Flash or Phusion High-Fidelity PCR master mix (Thermo Fisher Scientific, Waltham, MA) with primers spanning the 5′UTR region through Exon 5 (798 bp) of the NRF2 gene. PCR reactions were purified using Qiagen Qiaquick PCR cleanup columns (Quiagen, Hilden, Germany) according to manufacturer's protocol, measured on a Nanodrop and equally loaded on a 1% agarose gel.
The difference between targeting exon 2 and exon 4 was intriguing, so we wanted to see if a molecular rearrangement, exon skipping, which we had identified previously within the NRF2 gene was at least in part responsible for this difference^33. Since we know NRF2 exon 2 and exon 4 are disrupted by design, and intra-genic changes are the objective of the experiment, we asked if exon skipping could account for the differential response in targeting exon 2 versus exon 4. FIG. 14A represents the potential exon skipping outcomes. For both the FADU and the KYSE-410 cells, at 72 hours post-transfection RNA was converted to cDNA followed by PCR amplification of the NRF2 cDNA (798 bp) spanning the 5′UTR to exon 5. […] The 798 bp is the full transcript while the lower band for sg3 is 531 bp and sg76 is 606 bp, the expected sizes of the removal of exon 2 (267 bp) and exon 4 (192 bp).

In data set [2] the test system is NRF2 gene. In words: NRF2 gene editing (indel/frameshift) analysis by NGS and CRISPResso2 in KYSE-410 cells. The following applies: for gene editing activity (indel profiles): seventy-two hours post-transfection; for knocking out NRF2 (DNA sequence data): exon 4. It counts as cell-based, Human. The protocol: The NRF2 gene-coding sequence was entered into SnapGene and the following gRNAs were selected for targeting exon 2: (sg3) 5′-[…]-3′ (SEQ ID NO:75); as well as two gRNAs targeting Exon 4: (sg76) 5′-[…]-3′ (SEQ ID NO:16), (sg83) 5′-[…]-3′ (SEQ ID NO:24). Based on the gRNA design, synthetic single gRNAs were ordered from Synthego (Menlo Park, California, USA). CleanCap® Cas9 mRNA (5moU) was ordered from TriLink Biotechnologies (San Diego, CA, USA).
Either one million cells were seeded to a 75 cm^2 tissue culture flask or 2.5 million cells were seeded to a 175 cm^2 tissue culture flask 24 hours prior to transfection and allowed to reach 60-80% confluency. On the day of the transfection, cells were treated with Lipofectamine MessengerMAX reagent (Thermo Fisher Scientific, Waltham, MA) bearing 10 μg or 25 μg of Cas9mRNA and 10 μg or 25 μg of sgRNA, suspended in Opti-MEM, per the manufacturer's instructions. 39 μL or 97.5 μL of MessengerMax lipofectamine reagent was diluted in 1.5 mL or 3.75 mL OPTI-MEM medium and vortexed twice was incubated for ten minutes at room temperature, during which time the culture media was replaced with 15 mL or 25 mL of fresh media, as appropriate to the cell line. A total of 20 μg or 50 μg of RNA was then added to the diluted lipofectamine, consisting of 10 μg or 25 μg Cas9 mRNA and 10 μg or 25 μg sgRNA. The suspension was incubated at room temperature for an additional five minutes before being added, in full, to the tissue culture flask, which was then swirled gently to disperse the reagent. Treated cells were incubated for 72 hours at 37° C. prior to being assayed.
Targeted amplicon libraries were prepared using Illumina's 16S metagenomic sequencing library preparation protocol for MiSeq. Genomic DNA was extracted from cells using the Qiagen's DNeasy Blood & Tissue kit (Quiagen, Hilden, Germany) or QuickExtract reagent (Biosearch Technologies). The region surrounding the CRISPR target site for Exon 2 (398 bp) and Exon 4 (402 bp) of the NRF2 gene were amplified using the 2× Phusion Flash PCR master mix (Thermo Fisher Scientific, Waltham, MA). Post amplification, samples were cleaned using AMPure beads and DNA concentration was measured using the Qubit assay (Thermo Fisher Scientific, Waltham, MA). Samples are also run on TapeStation (Agilent Technologies Santa Clara, CA) to verify the presence of the desired amplicon. The samples were indexed using either the IDT for Illumina DNA/RNA UD indexes set A (Illumina San Diego, CA). Samples were again quantified using Qubit and average library size was calculated using the Tapestation amplicon size. Once pooled to the loading concentration, the libraries were sequenced using the MiSeq Reagent kit v2 (Illumina, San Diego, CA). Only the data that passed data QC in Sequencing Analysis Viewer, was analyzed using CRISPResso2 (CRISPResso2 website) to understand gene editing efficiency and frameshift analysis.

A further data set deals with T98G cells. The data set is described as follows: Chemosensitivity testing, CellTiter-Glo 2.0, T98G cells. In kind it is cell-based, human. The following applies: increasing concentrations of temozolomide and doxorubicin, 72 hr. An excerpt:
FIG. 5A-D: Glioblastoma cells targeting exon 4 of NRF2 and assessment of chemotherapy response. T98G cells (FIG. 5A) and LN229 cells (FIG. 5B) were transfected with each respective gRNA. Genomic DNA from each cell population was isolated and amplified across exon 4 of the NRF2 gene. Amplicons were sanger sequenced and analyzed for indels at the CRISPR target site. Raw sequence files were aligned using the software program, DECODR, to display the indel pattern (listed as INDEL and frameshift %). (FIG. 5C-D) Chemosensitivity Testing in response to NRF2 targeting. Chemosensitivity was measured via CellTiter-Glo® 2.0 Assay. Untargeted and CRISPR targeted T98G cells were treated with increasing concentrations of (FIG. 5C) temozolomide or (FIG. 5D) doxorubicin for 72 hr. and then evaluated for cell viability. The average relative viability of cells normalized to the untreated Wt. was graphed. The error bars represent % CV.
Two human glioblastoma-derived cell lines were used to assess CRISPR activity and downstream effects of NRF2 knockout. FIG. 5 compares targeting exon 4 by two sgRNAs (sg76 (SEQ ID NO:16) and sg83 (SEQ ID NO:24)) and chemosensitivity assessment after targeting in both glioblastoma T98G and LN229 cell lines. Both cell lines were transfected using CRISPRmax lipofection with each respective gRNA and Cas9 mRNA. […]

For “sg3: gRNA targeting the DLG motif in exon 2 of NRF2; 5′-TATTTGACTTCAGTCAGCGA-3′ or TGGAGGCAAGATATAGATCT (further chemistry not given here) [reference compound]”, in the data set on NRF2 gene [1], the exon skipping entry was “second lower band indicative of an exon skipping event”. Further, the “gene editing activity (indel profiles)” value in the data set on NRF2 gene [2] stood at 97%.
For the substance “sg76: gRNA targeting exon 4 of NRF2; TCACTTGTTCCTGATATTCC CGG (guide TCACTTGTTCCTGATATTCCCGG; listed as DNA, chemistry not given here)”, the exon skipping result with NRF2 gene [1] was “second lower band indicative of an exon skipping event”. Besides, in the data set on T98G cells, the sensitivity to treatment result is recorded as “increased sensitivity to treatment”. In addition, in the data set on NRF2 gene [2], the “knocking out NRF2 (DNA sequence data)” value is “efficient in knocking out NRF2 at exon 4” and the “gene editing activity (indel profiles)” value was determined as 97%.
Turning to “sg83: gRNA targeting exon 4 of NRF2; GTAGCCCCTGTTGATTTAGA CGG (guide GTAGCCCCTGTTGATTTAGACGG; listed as DNA, chemistry not given here)”, the exon skipping result with NRF2 gene [1] is given as “some level of exon skipping activity is detected but at much lower rate”. In addition, the sensitivity to treatment entry in the data set on T98G cells is reported as “increased sensitivity to treatment”. In the data set on NRF2 gene [2], the “knocking out NRF2 (DNA sequence data)” value was “efficient in knocking out NRF2 at exon 4” and the “gene editing activity (indel profiles)” value is on record as 97%.
